Patent publication US20090088403A1, “A3 ADENOSINE RECEPTORS AS TARGETS FOR THE MODULATION OF CENTRAL SEROTONERGIC SIGNALING” (priority 2007, published 2009)

Key:
Assay type in all cases: cell-based
SERT = assay: [3H]5-HT transport assay in mouse brain synaptosomes; conditions: for effect on IB-MECA (10 nM) stimulated 5-HT uptake: inhibitor 10 min before IB-MECA, MRS1191 1 μM, DT-2 1.0 μM, H8 0.1 μM, SB203580 1.0 μM
dopamine transporter = assay: [3H]DA uptake in mouse striatal and midbrain synaptosomes; conditions: 10 min
GABA transport activity = assay: [3H]GABA uptake in mouse striatal and midbrain synaptosomes; conditions: 10 min
[1] = midbrain synaptosomes, IB-MECA 10 nM 10 min, MRS1191 1 μM 10 min before IB-MECA, Michaelis-Menten fit, mean (n=3) ±SEM

CCOC(=O)C1=C(C)NC(c2ccccc2)=C(C(=O)OCc2ccccc2)C1C#Cc1ccccc1 (racemic) [MRS1191, 3-ethyl-5-benzyl-2-methyl-phenylethynyl-6-phenyl-1,4(±)dihydropyridine-3,5-dicarboxylate]
effect on IB-MECA (10 nM) stimulated 5-HT uptake (SERT; midbrain synaptosomes): prevented the stimulatory actions of IB-MECA on 5-HT uptake | effect alone on basal 5-HT transport (SERT; synaptosomes, 0.01-100 μM, data not shown): did not influence basal 5-HT transport

CNCCNS(=O)(=O)c1cccc2cnccc12 [H8, N-[2-(methylamino)ethy]-5-isoquinoline-sulfonamide]
effect on IB-MECA (10 nM) stimulated 5-HT uptake (SERT; midbrain synaptosomes): blocked IB-MECA regulation of SERT

CCNC(=O)C1OC(n2cnc3c(N)ncnc32)C(O)C1O (stereo not shown) [NECA, 5′-N-ethyl-carboxamidoadenosine]
effect on SERT activity (SERT; midbrain synaptosomes, 10 min at 37° C.): fails to stimulate SERT activity | effect on 5-HT transport at high concentration (SERT; midbrain synaptosomes, concentrations above 1 μM): inhibited 5-HT transport

C[C@H](Cc1ccccc1)Nc1ncnc2c1ncn2[C@@H]1O[C@H](CO)[C@@H](O)[C@H]1O [R-PIA, (R)—N^6-phenylisopropyladenosine]
impact on 5-HT transport (SERT; midbrain synaptosomes, 1~1000 nM, 10 min at 37° C.): No impact

N6-(3-iodobenzyl)-N-methyl-5′carbamoyladenosine [IB-MECA]
increase in 5-HT transport (SERT; midbrain and hippocampal synaptosomes of A3AR+/+ mice, 10 nM, 10 min): 40-50% | stimulation of SERT activity in A3AR−/− mice (SERT; midbrain and hippocampal synaptosomes of A3AR−/− mice, 10 nM, 10 min): failed to stimulate SERT activity | effect on SERT Vmax for 5-HT (SERT; midbrain synaptosomes, 10 nM): significantly increased the SERT Vmax for 5-HT | 5-HT transport at peak stimulation (SERT; midbrain synaptosomes, 10 nM, 10 min pretreatment): 130-150 % of control levels | time at which stimulation of 5-HT uptake reached a maximum (SERT; midbrain synaptosomes, 10 nM, post-treatment): 10 to 20 min | concentration at which stimulation of 5-HT transport peaked (SERT; midbrain synaptosomes, 10 min pretreatment): 10 nM | Km (SERT; [1]): 0.8 µM | Vmax (SERT; [1]): 2544+/−281 fmol/mg protein/min | effect on 5-HT uptake at high concentration (SERT; midbrain synaptosomes, exceeding 100 μM, data not shown): induced a decrease in 5-HT uptake | SERT activity in striatal synaptosomes (SERT; striatal synaptosomes, 10 min): IB-MECA-insensitive SERT activity | concentration window for stimulation of 5-HT transport (SERT; synaptosomes, for 20 min): 10 to 30 nM | effect on DA uptake (dopamine transporter): no stimulation | effect on GABA uptake (GABA transport activity): no stimulation
